Results as given in patent US7608619B2, “Substituted oxazole compounds with analgesic activity” (Gruenenthal GmbH, priority 2005, dated 2009).

Molecular target: T1, human μ-opiate receptor (Homo sapiens, UniProt P35372)
T1 construct: purchased Nen company, Zaventem, Belgium RB-HOM; host or cells: CHO-K1 cells (membrane preparation)
Assay: Affinity for the human μ-opiate receptor ([3H]-naloxone displacement, SPA, CHO-K1 membrane preparation)
Conditions: test substance 1 μmole/l, displacement of 1 nmole/l [3H]-naloxone, percentage inhibition of the specific binding; for inhibition at 1 µM: read-out: μ-opioid receptor, % inhibition [1 μM]
Procedure: Method for Determining the Affinity for the Human μ-Opiate Receptor
The receptor affinity for the human μ-opiate receptor is determined in a homogeneous batch in microtiter plates. For this purpose dilution series of the substances to be tested are incubated for 90 minutes at room temperature with a receptor membrane preparation (15-40 μg protein/250 μl incubation batch) of CHO-K1 cells, which express the human μ-opiate receptor (RB-HOM receptor membrane preparation from the Nen company, Zaventem, Belgium), in the presence of 1 nmole/l of the radioactive ligand [^3H]-naloxone (NET719, Nen company, Zaventem, Belgium) and 1 mg WGA-SPA beads (wheat germ agglutinin SPA beads from Amersham/Pharmacia, Freiburg, Germany) in a total volume of 250 μl. 50 mmole/l of Tris-HCl supplemented with 0.05% sodium azide and with 0.06% bovine serum albumin is used as incubation buffer. In order to determine the non-specific binding, 25 μmole/l of naloxone is additionally added. After the end of the 90 minutes' incubation time the microtiter plates are centrifuged for 20 minutes at 1000 g and the radioactivity is measured in a beta counter (Microbeta-Trilux, PerkinElmer Wallac, Freiburg, Germany). The percentage displacement of the radioactive ligand from its binding to the human μ-opiate receptor at a concentration of the test substances of 1 μmole/l is determined and is given as percentage inhibition of the specific binding.

T1 sequence (P35372 whole entry): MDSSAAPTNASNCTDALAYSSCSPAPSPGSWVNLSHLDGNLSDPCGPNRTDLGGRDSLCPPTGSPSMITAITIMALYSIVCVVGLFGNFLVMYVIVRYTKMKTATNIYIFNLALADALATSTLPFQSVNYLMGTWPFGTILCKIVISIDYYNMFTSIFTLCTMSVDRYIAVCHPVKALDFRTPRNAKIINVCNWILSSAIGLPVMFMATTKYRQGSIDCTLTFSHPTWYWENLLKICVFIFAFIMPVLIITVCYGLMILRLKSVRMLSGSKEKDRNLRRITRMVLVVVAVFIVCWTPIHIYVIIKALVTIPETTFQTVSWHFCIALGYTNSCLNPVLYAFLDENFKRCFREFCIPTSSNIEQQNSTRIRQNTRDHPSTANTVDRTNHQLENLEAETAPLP

With `CN(C)C(c1cccs1)C1CCC(C(c2nc(Cc3ccccc3)c(N3CCC(Cc4ccccc4)CC3)o2)N2CCN(Cc3ccccc3)CC2)CC1` (stereo not shown) [compound 32, ({4-[[4-benzyl-5-(4-benzylpiperidin-1-yl)-oxazol-2-yl]-(4-benzylpiperazin-1-yl)-methyl]-cyclohexyl}-thiophen-2-yl-methyl)-dimethylamine] the inhibition at 1 µM was 75%.
In the case of `CN(Cc1ccccc1)c1oc(C(CC2CCC(C(c3ccc(F)cc3)N(C)C)CC2)N2CCCCC2)nc1Cc1ccccc1` (stereo not shown) [compound 66, Benzyl-[4-benzyl-2-(2-{4-[dimethylamino-(4-fluorophenyl)-methyl]-cyclohexyl}-1-piperidin-1-yl-ethyl)-oxazol-5-yl]-methylamine], the inhibition at 1 µM is reported as 65%.
For `CN(C)C(c1cccs1)C1CCC(CC(c2nc(Cc3ccccc3)c(N3CCN(Cc4ccccc4)CC3)o2)N2CCN(Cc3ccccc3)CC2)CC1` (stereo not shown) [compound 82, ({4-[2-[4-benzyl-5-(4-benzylpiperazin-1-yl)-oxazol-2-yl]-2-(4-benzyl-piperazin-1-yl)-ethyl]-cyclohexyl}-thiophen-2-yl-methyl)-dimethylamine], the inhibition at 1 µM was 83%.
`CCN(CC)c1oc(C(CC2CCC(C(c3ccc(Cl)cc3)N(C)C)CC2)N(CC)CC)nc1Cc1ccccc1` (stereo not shown) [compound 90, [4-benzyl-2-(2-{4-[(4-chlorophenyl)-dimethylaminomethyl]-cyclohexyl}-1-diethylaminoethyl)-oxazol-5-yl]-diethylamine] showed an inhibition at 1 µM of 89%.
`CCN(CC)C(c1nc(Cc2ccccc2)c(N2CCN(Cc3ccccc3)CC2)o1)C1CCC(C(c2cccs2)N(C)C)CC1` (stereo not shown) [compound 28, {[4-benzyl-5-(4-benzyl-piperazin-1-yl)-oxazol-2-yl]-[4-(dimethylamino-thiophen-2-yl-methyl)-cyclohexyl]-methyl}-diethylamine] was tested, and the inhibition at 1 µM was 72%.
`CC1CC(C)CN(c2oc(C(CC3CCC(C(c4ccc(F)cc4)N(C)C)CC3)N(C)c3ccccc3)nc2Cc2ccccc2)C1` (stereo not shown) [compound 101, (1-[4-benzyl-5-(3,5-dimethylpiperidin-1-yl)-oxazol-2-yl]-2-{4-[dimethylamino-(4-fluorophenyl)-methyl]-cyclohexyl}-ethyl)-methylphenylamine] showed an inhibition at 1 µM of 68%.
Work on `CCN(CC)C(CC1CCC(C(c2ccc(F)cc2)N(C)C)CC1)c1nc(Cc2ccccc2)c(N(C)CCc2ccccc2)o1` (stereo not shown) [compound 97, [4-benzyl-2-(1-diethylamino-2-{4-[dimethylamino-(4-fluorophenyl)-methyl]-cyclohexyl}-ethyl)-oxazol-5-yl]-methylphenethylamine] yielded an inhibition at 1 µM of 85%.
Compound `CN(C)C(c1ccc(Cl)cc1)C1CCC(CC(c2nc(Cc3ccccc3)c(N3CCSCC3)o2)N(C)c2ccccc2)CC1` (stereo not shown) [compound 92, (1-(4-benzyl-5-thiomorpholin-4-yl-oxazol-2-yl)-2-{4-[(4-chlorophenyl)-dimethylaminomethyl]-cyclohexyl}-ethyl)-methylphenylamine] has an inhibition at 1 µM of 87%.
Work on `CCN(CC)C(c1nc(Cc2ccccc2)c(N2CCN(c3ccccc3)CC2)o1)C1CCC(C(c2cccs2)N(C)C)CC1` (stereo not shown) [compound 31, {[4-benzyl-5-(4-phenylpiperazin-1-yl)-oxazol-2-yl]-[4-(dimethylamino-thiophen-2-yl-methyl)-cyclohexyl]-methyl}-diethylamine] yielded an inhibition at 1 µM of 62%.
`COc1ccc(N2CCN(C(CC3CCC(C(c4cccs4)N(C)C)CC3)c3nc(Cc4ccccc4)c(N4CCCC4)o3)CC2)cc1` (stereo not shown) [compound 163, [(4-{2-(4-benzyl-5-pyrrolidin-1-yl-oxazol-2-yl)-2-[4-(4-methoxyphenyl)-piperazin-1-yl]-ethyl}-cyclohexyl)-thiophen-2-yl-methyl]-dimethylamine] showed an inhibition at 1 µM of 83%.
With `CN(C)C(c1cccs1)C1CCC(C(c2nc(Cc3ccccc3)c(N3CCCC3)o2)N2CCN(c3ccc(F)cc3)CC2)CC1` (stereo not shown) [compound 142, [(4.-{(4-benzyl-5-pyrrolidin-1-yl-oxazol-2-yl)-[4-(4-fluorophenyl)-piperazin-1-yl]-me.thyl}-cyclohexyl)-thiophen-2-yl-methyl]-dimethylamine] the “μ-opioid receptor, % inhibition [1 μM]” value was 85%.
With `COc1ccc(N2CCN(C(c3nc(Cc4ccccc4)c(N4CCCC4)o3)C3CCC(C(c4cccc(F)c4)N(C)C)CC3)CC2)cc1` (stereo not shown) [compound 123, [(4-{(4-benzyl-5-pyrrolidin-1-yl-oxazol-2-yl)-[4-(4-methoxyphenyl)-piperazin-1-yl]-methyl}-cyclohexyl)-(3-fluorophenyl)-methyl]-dimethylamine] the inhibition at 1 µM was 66%.
`CCN(CC)C(CC1CCC(C(c2ccc(F)cc2)N(C)C)CC1)c1nc(Cc2ccccc2)c(N(C)Cc2ccccc2)o1` (stereo not shown) [compound 70, Benzyl-[4-benzyl-2-(1-diethylamino-2-{4-[dimethylamino-(4-fluorophenyl)-methyl]-cyclohexyl}-ethyl)-oxazol-5-yl]-methylamine] was tested, and the inhibition at 1 µM was 60%.
`COc1ccc(N2CCN(C(CC3CCC(C(c4cccs4)N(C)C)CC3)c3nc(Cc4ccccc4)c(N4CC(C)OC(C)C4)o3)CC2)cc1` (stereo not shown) [compound 165, [(4-{2-[4-benzyl-5-(2,6-dimethyl-morpholin-4-yl)-oxazol-2-yl]-2-[4-(4-methoxyphenyl)-piperazin-1-yl]-ethyl}-cyclohexyl)-thiophen-2-yl-methyl]-dimethylamine] was tested, and the inhibition at 1 µM was 93%.
Work on `COc1ccc(N2CCN(C(c3nc(Cc4ccccc4)c(N4CCCC4)o3)C3CCC(C(c4ccc(Cl)cc4)N(C)C)CC3)CC2)cc1` (stereo not shown) [compound 134, [(4-{(4-benzyl-5-pyrrolidin-1-yl-oxazol-2-yl)-[4-(4-methoxyphenyl)-piperazin-1-yl]-methyl}-cyclohexyl)-(4-chlorophenyl)-methyl]-dimethylamine] yielded an inhibition at 1 µM of 72%.
Work on `CC1CCCN(c2oc(C(CC3CCC(C(c4cccs4)N(C)C)CC3)N3CCN(Cc4ccccc4)CC3)nc2Cc2ccccc2)C1` (stereo not shown) [compound 119, ({4-[2-[4-benzyl-5-(3-methylpiperidin-1-yl)-oxazol-2-yl]-2-(4-benzyl-piperazin-1-yl)-ethyl]-cyclohexyl}-thiophen-2-yl-methyl)-dimethylamine] yielded an inhibition at 1 µM of 99%.
Compound `CCN(CC)C(c1nc(Cc2ccccc2)c(N(C)Cc2ccccc2)o1)C1CCC(C(c2ccc(Cl)cc2)N(C)C)CC1` (stereo not shown) [compound 21, Benzyl-[4-benzyl-2-({4-[(4-chlorophenyl)-dimethylaminomethyl]-cyclohexyl}-diethylaminomethyl)-oxazol-5-yl]-methylamine] has an inhibition at 1 µM of 72%.
`CN(CCc1ccccc1)c1oc(C(C2CCC(C(c3ccc(F)cc3)N(C)C)CC2)N(C)c2ccccc2)nc1Cc1ccccc1` (stereo not shown) [compound 38, {4-benzyl-2-[{4-[dimethylamino-(4-fluorophenyl)-methyl]-cyclohexyl}-(methylphenylamine)-methyl]-oxazol-5-yl}-methylphenethylamine] was tested, and the “μ-opioid receptor, % inhibition [1 μM]” value was 62%.
Work on `CCN(CC)C(CC1CCC(C(c2cccs2)N(C)C)CC1)c1nc(Cc2ccccc2)c(N(C)CCc2ccccc2)o1` (stereo not shown) [compound 113, (4-benzyl-2-{1-diethylamino-2-[4-(dimethylaminothiophen-2-yl-methyl)-cyclohexyl]-ethyl}-oxazol-5-yl)-methylphenethylamine] yielded an inhibition at 1 µM of 97%.
`CCN(CC)c1oc(C(C2CCC(C(c3cccs3)N(C)C)CC2)N(CC)CC)nc1Cc1ccccc1` (stereo not shown) [compound 50, (4-benzyl-2-{diethylamino-[4-(dimethylaminothiophen-2-yl-methyl)-cyclohexyl]-methyl}-oxazol-5-yl)-diethylamine] was tested, and the inhibition at 1 µM was 83%.
`CCN(CC)c1oc(C(CC2CCC(C(c3ccc(Cl)cc3)N(C)C)CC2)N2CCN(Cc3ccccc3)CC2)nc1Cc1ccccc1` (stereo not shown) [compound 94, [4-benzyl-2-(1-(4-benzylpiperazin-1-yl)-2-{4-[(4-chlorophenyl)-dimethylaminomethyl]-cyclohexyl}-ethyl)-oxazol-5-yl]-diethylamine] was tested, and the inhibition at 1 µM was 74%.
`CCN(CC)C(c1nc(Cc2ccccc2)c(N2CC(C)CC(C)C2)o1)C1CCC(C(c2ccc(Cl)cc2)N(C)C)CC1` (stereo not shown) [compound 41, ([4-benzyl-5-(3,5-dimethylpiperidin-1-yl)-oxazol-2-yl]-{4-[(4-chlorophenyl)-dimethylaminomethyl]-cyclohexyl}-methyl)-diethylamine] was tested, and the inhibition at 1 µM was 64%.
`CN(CCc1ccccc1)c1oc(C(C2CCC(C(c3cccs3)N(C)C)CC2)N2CCN(Cc3ccccc3)CC2)nc1Cc1ccccc1` (stereo not shown) [compound 54, (4-benzyl-2-{(4-benzyl-piperazin-1-yl)-[4-(dimethylaminothiophen-2-yl-methyl)-cyclohexyl]-methyl}-oxazol-5-yl)-methyl-phenethylamine] showed an inhibition at 1 µM of 74%.
In the case of `COc1ccc(N2CCN(C(c3nc(Cc4ccccc4)c(N4CCOCC4)o3)C3CCC(C(c4cccs4)N(C)C)CC3)CC2)cc1` (stereo not shown) [compound 144, [(4-{(4-benzyl-5-morpholin-4-yl-oxazol-2-yl)-[4-(4-methoxy-phenyl)-piperazin-1-yl]-methyl}-cyclohexyl)-thiophen-2-yl-methyl]-dimethylamine], the inhibition at 1 µM is reported as 64%.
With `CN(C)C(c1ccc(Cl)cc1)C1CCC(C(c2nc(Cc3ccccc3)c(N3CCCC3)o2)N2CCc3ccccc3C2)CC1` (stereo not shown) [compound 137, [{4-[(4-benzyl-5-pyrrolidin-1-yl-oxazol-2-yl)-(3,4-dihydro-1H-isoquinolin-2-yl)-methyl]-cyclohexyl}-(4-chlorophenyl)-methyl]-dimethylamine] the inhibition at 1 µM was 85%.
